Results on one compound are retold here after patent publication US20160346249A1 (priority 2012, published 2016).

Format in all cases: in vitro ADME
The nature of data set [1]: NADPH dependent metabolism, human liver microsomes. The method, then: (§1) Bicifadine (10 μM) was used as the positive control and the formation of the lactam metabolites of bicifadine (M-12) was monitored.
In general terms: Liver microsomes are vesicles of endoplasmic reticulum, rich in cytochrome P450 enzymes.

The nature of data set [2]: NADPH dependent metabolism, rat liver microsomes. The conditions noted are these: RLM, from EB-1010 10 μM. The method, then: as §1
A further data set has as its target T1, human recombinant MAO-B (Homo sapiens, UniProt P27338).
T1 construct: purchased BD Biosciences, Woburn, Mass
T1 sequence (P27338 1-520): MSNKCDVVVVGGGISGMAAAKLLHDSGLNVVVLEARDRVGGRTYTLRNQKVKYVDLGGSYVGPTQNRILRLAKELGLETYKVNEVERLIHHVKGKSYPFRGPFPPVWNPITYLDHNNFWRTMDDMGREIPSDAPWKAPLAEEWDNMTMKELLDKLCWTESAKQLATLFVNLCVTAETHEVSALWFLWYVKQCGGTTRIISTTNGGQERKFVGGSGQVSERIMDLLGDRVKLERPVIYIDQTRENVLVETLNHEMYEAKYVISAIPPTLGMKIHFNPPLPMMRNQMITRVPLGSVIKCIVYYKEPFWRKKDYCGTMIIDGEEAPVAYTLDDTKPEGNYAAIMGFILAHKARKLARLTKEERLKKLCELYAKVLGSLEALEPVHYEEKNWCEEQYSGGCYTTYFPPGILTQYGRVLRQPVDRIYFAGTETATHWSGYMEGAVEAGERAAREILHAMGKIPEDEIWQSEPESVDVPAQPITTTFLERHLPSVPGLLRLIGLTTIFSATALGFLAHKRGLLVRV
Put plainly: Metabolism by recombinant MAO-B. The method, then: Incubation systems (ca. 0.2 mL) of human recombinant MAO-A (1.0 mg/mL) and MAO-B (1.0 mg/mL) (BD Biosciences, Woburn, Mass.) were prepared in triplicated 0.1 M potassium phosphate buffer (pH 7.4) (BD Biosciences, Woburn, Mass.). […] The negative samples were prepared as described above, with the exception that instead of HLM, HLmito, or recombinant enzymes, water was added to the incubation mixture.

On to `O=C1NCC2(c3ccc(Cl)c(Cl)c3)CC12` (stereo not shown) [EB-10101, 5-(3,4-dichloro-phenyl)-3-aza-bicyclo[3.1.0]hexan-2-one], for which the “amount formed with NADPH vs without NADPH” value in data set [1] (HLM, from EB-1010 10 μM) is listed as approximately 2 fold; in data set [2], approximately 5 fold. Further, the “share of lactam formed by enzymes other than CYPs or FMOs” value in data set [1] (human liver microsomes) is on record as “about 50%”. Besides, the “MAO-B mediation of formation” value on human recombinant MAO-B is “not MAO-B mediated”.
